Consider six compounds from patent US5475032A, “2,4-disulfonyl phenyl butyl nitrone, its salts, and their use as pharmaceuticals” (Oklahoma Medical Research Foundation, priority 1995, dated 1995).

A word on the solubility: it is how much of the substance goes into solution per volume. A high value points to much dissolved substance. For orientation: LD50 means the dose expected to kill half of the subjects tested.

Data set [1] has as its system neuron loss following brain ischemia and reperfusion injury. Put plainly: neuronal density after 5 min bilateral carotid occlusion, compound i.p. 30 min before ischemia (Example 3). To be noted: for Neuronal nuclei/100 micron field: 30 min before ischemia. The format is in vivo, gerbil. Here is the method: In the experiments a test compound was administered to groups of six gerbils i.p. as a single dose 30 min before 5 min bilateral carotid occlusion. The density of neuronal nuclei in a 100 micron was measured. Two controls were present--controls which received no test compound and controls which received no test compound and no brain ischemia.

Data set [2] shares this test system. Put plainly: neuronal density, post-ischemia treatment, compound i.p. 30 min after reperfusion following 5 min ischemia (Example 4). Format: in vivo, gerbil.
The subject of data set [3] is infarct volume following middle cerebral occlusion. Put plainly: infarct volume after middle cerebral occlusion (Example 7). The format is in vivo, C57BL/6J mice. To be noted: from 60 min after occlusion for 24 hours. Here is the method:
The ability of the compound of the invention to reduce infarct volume following an ischemic event was determined.

The subject of data set [4] is glutamine synthetase (GS). Put plainly: protection of glutamine synthetase against βAP 25-35 (Example 11). The note with it: co-incubation with 0.4 mg/ml BAP 25-35. The format is biochemical, gerbil. Here is the method: (§1) Cytosolic fractions from gerbil neocortex were prepared and enzyme activities determined. Samples were incubated in the presence of different concentrations of the peptide for 10 min prior to assay. Solid symbols represent the effects of the naturally occurring 25-35 fragment. […] Each point is the mean (+/- s.e.) of 5 observations. βAP derived and other cellular sources of free radicals are an important determinant of the initiation and progression of AD.
(§2) Each point is the mean (+/- s.e.) of 3 observations.

The test system of data set [5] is infarct volume following middle cerebral artery occlusion. Put plainly: rat focal ischemia model, permanent middle cerebral artery occlusion (Example 12). The format is in vivo, Sprague Dawley rats. To be noted: both studies: 100 mg/kg i.p. then 4.2 mg/kg/hr i.v., or 10 mg/kg i.p. then 0.42 mg/kg/hr i.v., up to 24 h; 3 days post stroke. An excerpt: A pair of studies were done to determine the efficacy of Compound I in a rat focal ischemia model. In this model, Sprague Dawley rats (200-300 g) underwent a permanent middle cerebral artery occlusion (MCAO) to induce a focal stroke.
The rats were sacrificed 3 days post stroke, the tissue was processed histologically using triphenyltetrazolium staining techniques, and the infarct volume, the area of total cell necrosis, was quantitated using image analysis.

Data set [6] concerns lethality from 10 min ischemia. Kind of data set: lethality protection in aged gerbils from 10 min ischemia (Example 8). The format is in vivo, gerbil. To be noted: 30 min before ischemia.
The subject of a further data set is Sprague Dawley rats. Kind of data set: acute toxicity in male Sprague Dawley rats (Example 14). Format: in vivo, rat. To be noted: 1000 mg/kg i.p., after 3 days. Here is the method:
The compounds were administered at 1000 mg/kg, i.p., to groups of 6 rats. After 3 days lethality was assessed.

Data set [7] is described as follows: doses demonstrated to be possible. To be noted: up to and higher.
Data set [8] deals with creatine kinase (CK). Kind of data set: protection of creatine kinase against βAP 25-35 (Example 11). Format: biochemical, gerbil. To be noted: co-incubation with 0.4 mg/ml BAP 25-35. Here is the method: as §1, §2
Data set [9] is described as follows: body temperature depression (Example 10). The format is in vivo. To be noted: levels as high as 1000 mg/kg, mice and gerbils. An excerpt:
Another undesirable systemic effect which has been observed in vivo with nitrone radical traps is a depression in body temperature. This toxicity can have serious health consequences and also can complicate diagnosis of other conditions.

The test system of data set [10] is acute lethal effects of adriamycin. Put plainly: adriamycin acute lethality and its prevention by pretreatment, C57BL/6J mice (Example 13). Format: in vivo. To be noted: up to 300 mg/kg i.p., without adriamycin. An excerpt: (§3) All injections were intraperitoneal.
For data set [11] the test system is unchanged. Put plainly: adriamycin acute lethality and its prevention by pretreatment, DBA/2J mice (Example 13). Here is the method:
(§4) All injections were intraperitoneal. The acute lethality of adriamycin ranged from 10 to 30 mg/kg.

The nature of a further data set: solubility in water. The note with it: free acid. Format: physicochemical.
For data set [12], the system named is acute lethal effects of adriamycin. Kind of data set: comparative tests: nitrone pretreatment combined with adriamycin (Example 13). The format is in vivo, mouse. To be noted: doses of Compound I up to 300 mg/kg with adriamycin.
From the text: as §3

Data set [13] has as its system neuronal loss following ischemia. Put plainly: protection from neuronal loss, i.v. 60 min after reperfusion onset following 5 min ischemia (Example 5). The format is in vivo, gerbil. The note with it: for protection for neuronal loss (neuronal density): 60 min after reperfusion onset.
The test system of data set [14] is temporal/spatial short term memory following ischemia. Kind of data set: 8-arm radial maze test 24 hours after ischemia (Example 6). Format: in vivo, gerbil. Here is the method:
Brain injury can manifest itself as behavioral changes. In this experiment, young adult (3-4 months of age) gerbils were tested to determine their ability to perform an 8-arm maze test 24 hours following an ischemic event as described in Example 1. As compared to nonischemic animals, when untreated they committed many more errors. PBN and compound I were administered to some of the test animals.

A short description of data set [15]: adriamycin acute lethality and its prevention by pretreatment, C57BL/6J mice (Example 13). Format: in vivo. The note with it: mouse, in vivo, ip.
From the text: as §3

Data set [16] is described as follows: adriamycin acute lethality and its prevention by pretreatment, DBA/2J mice (Example 13). To be noted: mouse, in vivo, ip. Here is the method:
as §4

A further data set concerns rat brains. The note with it: infused into rat brains; cited from earlier work.
The subject of data set [17] is embryonic hippocampal neuronal and neuronal/glial cultures. To be noted: extended period of co-incubation; cited from earlier work.
Another data set deals with neuronal cultures. The note with it: Dichlorofluorescein and increased intracellular free calcium Fura-2; cited from earlier work.
A further data set relates to neurotoxicity. To be noted: cited from earlier work.
For data set [18], the system named is creatine kinase (CK). Put plainly: inactivation of creatine kinase by βAP fragments in cytosolic fractions of neocortex (Example 11). Format: biochemical, gerbil. The note with it: 10 min incubation prior to assay. Here is the method: as §1
The subject of data set [19] is glutamine synthetase (GS). Kind of data set: inactivation of glutamine synthetase by βAP fragments in cytosolic fractions of neocortex (Example 11). The format is biochemical, gerbil. To be noted: 10 min incubation prior to assay. Here is the method:
as §1

With `CC(C)(C)[N+]([O-])=Cc1ccccc1S(=O)(=O)O` [Compound 2-sulfo, N-tert-butyl-α-(2-sulfophenyl) nitrone], the “Neuronal nuclei/100 micron field” value is given as 0.73 Neuronal nuclei/100 micron field in data set [1] (3.2 mg/kg i.p.); 0.68 Neuronal nuclei/100 micron field in [1] (10 mg/kg i.p.); 0.73 Neuronal nuclei/100 micron field in data set [1] (32 mg/kg i.p.); 1.01 Neuronal nuclei/100 micron field in data set [1] (50 mg/kg i.p.); 0.93 Neuronal nuclei/100 micron field in data set [1] (100 mg/kg i.p.); 1.11 Neuronal nuclei/100 micron field in data set [1] (320 mg/kg i.p.). Besides, the “Neuronal nuclei/100 micron field” value in data set [1] (1000 mg/kg i.p.) is 0.98 Neuronal nuclei/100 micron field; in data set [2] (50 mg/kg i.p.) it was 0.68 Neuronal nuclei/100 micron field; in data set [2] (100 mg/kg i.p.), 0.78 Neuronal nuclei/100 micron field; in data set [2] (320 mg/kg i.p.) it was 0.81 Neuronal nuclei/100 micron field.

With `CC(C)(C)[N+]([O-])=Cc1cccc(S(=O)(=O)O)c1` [Compound 3-sulfo], the “Neuronal nuclei/100 micron field” value in data set [1] (3.2 mg/kg i.p.) is reported as 0.35 Neuronal nuclei/100 micron field; in data set [1] (10 mg/kg i.p.), 0.81 Neuronal nuclei/100 micron field; in data set [1] (32 mg/kg i.p.), 1.63 Neuronal nuclei/100 micron field; in data set [1] (50 mg/kg i.p.) it was 1.63 Neuronal nuclei/100 micron field; in data set [1] (100 mg/kg i.p.) it was 1.93 Neuronal nuclei/100 micron field; in [1] (320 mg/kg i.p.), 1.78 Neuronal nuclei/100 micron field. In addition, the “Neuronal nuclei/100 micron field” value is recorded as 1.58 Neuronal nuclei/100 micron field in data set [1] (1000 mg/kg i.p.), 0.73 Neuronal nuclei/100 micron field in [2] (50 mg/kg i.p.), 1.09 Neuronal nuclei/100 micron field in [2] (100 mg/kg i.p.) and 0.93 Neuronal nuclei/100 micron field in [2] (320 mg/kg i.p.).

For the compound `CC(C)(C)[N+]([O-])=Cc1ccc(S(=O)(=O)O)cc1S(=O)(=O)O` [Compound I], the “Infarct Volume” value in data set [3] (1.0 mg/kg/hr i.v.) was determined as 16.8 mm^3; in data set [3] (10 mg/kg/hr i.v.), 12.7 mm^3; in [3] (100 mg/kg/hr i.v.) it was 8.3 mm^3. Also, the “protection of GS against the effects of βAP fragments” value in [4] is given as “complete protection”. For the same compound, in data set [5], the “protection (infarct volume)” value was “approximately 70%”. For the same compound, the “lethality protection (% survived)” value is reported as 50% in [6] (10 mg/kg), 75% in data set [6] (32 mg/kg), 100% in [6] (100 mg/kg) and 100% in data set [6] (320 mg/kg). For the same compound, the lethality protection result in [6] (Compound I: at high levels) is given as “complete protection”. Moreover, in the data set on Sprague Dawley rats, the lethality entry was “no lethality”. Also, the “dose demonstrated to be possible” value in data set [7] was ≥ 1000 mg/kg/h. Further, the “Neuronal nuclei/100 micron field” value in data set [1] (3.2 mg/kg i.p.) was 1.43 Neuronal nuclei/100 micron field; in data set [1] (10 mg/kg i.p.), 2.57 Neuronal nuclei/100 micron field; in data set [1] (32 mg/kg i.p.), 3.53 Neuronal nuclei/100 micron field; in [1] (50 mg/kg i.p.), 4.11 Neuronal nuclei/100 micron field; in data set [1] (100 mg/kg i.p.) it was 4.18 Neuronal nuclei/100 micron field; in [1] (320 mg/kg i.p.), 4.23 Neuronal nuclei/100 micron field. Also, the “Neuronal nuclei/100 micron field” value is on record as 4.11 Neuronal nuclei/100 micron field in data set [1] (1000 mg/kg i.p.); 4.18 Neuronal nuclei/100 micron field in data set [1] (3200 mg/kg i.p.); 1.83 Neuronal nuclei/100 micron field in data set [2] (32 mg/kg i.p.); 2.73 Neuronal nuclei/100 micron field in data set [2] (50 mg/kg i.p.); 3.41 Neuronal nuclei/100 micron field in data set [2] (100 mg/kg i.p.); 3.55 Neuronal nuclei/100 micron field in data set [2] (320 mg/kg i.p.). Also, the “Neuronal nuclei/100 micron field” value in data set [2] (1000 mg/kg i.p.) is given as 3.68 Neuronal nuclei/100 micron field. The “protection against neuronal loss” value in data set [1] (high dose levels) was “complete protection against neuronal loss”. Also, in the data set with creatine kinase (CK) [8], the “protection of CK against the effects of βAP fragments” value is “complete protection”. Further, the temperature decrease entry in data set [9] is on record as “no measurable temperature decrease”. Further, the effect on survival entry in [10] is “no effect on survival”; in data set [11] (up to 300 mg/kg i.p., without adriamycin, DBA/2J), “no effect on survival”. In addition, the “maximally tolerated dose of adriamycin in combination” value in [11] (combination with adriamycin) is “marked increase in the maximally tolerated dose”. The solubility in the data set “solubility in water” was > 1000 mg/mL. Besides, the combined toxicity entry in data set [12] is “did not produce any combined toxicity”. Besides, the “protection for neuronal loss (neuronal density)” value turned out to be 1.25 in data set [13] (0.5 mg/kg single dose i.v.), 1.75 in data set [13] (1.0 mg/kg single dose i.v.) and 2.43 in data set [13] (10 mg/kg single dose i.v.). Further, the “effect on neuronal density in control gerbils” value in data set [13] (control gerbils without brain injury) is on record as “Neither PBN nor Compound I. had an effect on neuronal density”. Further, the “errors in 8-arm radial maze” value turned out to be 14.63 errors in data set [14] (1.0 mg/kg/hr for 24 hours), 7.19 errors in [14] (32 mg/kg/hr for 24 hours), 4.28 errors in data set [14] (50 mg/kg/hr for 24 hours) and 4.11 errors in [14] (100 mg/kg/hr for 24 hours). In addition, in [14] (high doses), the error levels result is “error levels indistinguishable from those of nonischemic animals”.

For the compound `COc1cccc2c1C(=O)c1c(O)c3c(c(O)c1C2=O)C[C@@](O)(C(=O)CO)C[C@@H]3O[C@H]1C[C@H](N)[C@H](O)[C@H](C)O1` [adriamycin], the LD50 in data set [15] and in [16] was 25 mg/kg in each case.

βAP 1-40: beta amyloid peptide 1-40: in the data set on rat brains, the “lesions in rat brains” value was “lesions are produced”. Also, in [17], the cytotoxicity result is listed as “produces cytotoxicity”. The oxidative stress entry with neuronal cultures was “results in oxidative stress”.

Regarding “βAP (25-35): proposed breakdown fragment of βAP; naturally occurring 25-35 fragment (GSNKGAIIGLM; Amyloid-beta protein 42; UniProt P05067 696-706, looked up, fragment)”, the neurotoxicity result in the data set with neurotoxicity was “neurotoxic”. The “inactivation of creatine kinase” value in the data set on creatine kinase (CK) [18] is reported as “dose-related inactivation”. Besides, in [19], the “inactivation of glutamine synthetase” value is “dose-related inactivation”.
